The OligoGym collection
HELM strings list units from the 5' end as sugar, base in round brackets, then linkage (d deoxyribose, r ribose, m 2'-O-methyl, p phosphodiester). Strings are as the collection lists them; they lack the last nucleoside at the 3' end of the tested compound. [moe] = 2'-O-(2-methoxyethyl) (MOE); [sp] = phosphorothioate linkage; [m5C] = 5-methylcytosine

These substances were tested against APP (assay: mouse, dose not given). Conditions: ASO.

| Substance | 3 h FOB score |
| --- | --- |
| RNA1{[moe]([m5C])[sp].[moe]([m5C])p.[moe](A)p.[moe](T)p.[moe]([m5C])[sp].d(T)[sp].d(T)[sp].d(T)[sp].d(A)[sp].d(T)[sp].d(T)[sp].d([m5C])[sp].d(T)[sp].d(A)[sp].d(T)[sp].[moe](G)p.[moe](A)p.[moe](G)[sp].[moe]([m5C])}$$$$ (last 3' nucleoside missing) | 0.75 score 0-7 |
| RNA1{[moe]([m5C])[sp].[moe]([m5C])p.[moe](A)p.[moe](T)p.[moe]([m5C])[sp].d(T)[sp].d(T)[sp].d([m5C])[sp].d(A)[sp].d([m5C])[sp].d(T)[sp].d(T)[sp].d([m5C])[sp].d(A)[sp].d(G)[sp].[moe](A)p.[moe](G)p.[moe](A)[sp].[moe](T)}$$$$ (last 3' nucleoside missing) | 0.5 score 0-7 |
| RNA1{[moe]([m5C])[sp].[moe]([m5C])p.[moe](A)p.[moe]([m5C])p.[moe](G)[sp].d(A)[sp].d([m5C])[sp].d([m5C])[sp].d(T)[sp].d(T)[sp].d(A)[sp].d([m5C])[sp].d(A)[sp].d([m5C])[sp].d(T)[sp].[moe](A)p.[moe](G)p.[moe](G)[sp].[moe](T)}$$$$ (last 3' nucleoside missing) | 0 score 0-7 |
| RNA1{[moe]([m5C])[sp].[moe]([m5C])p.[moe](T)p.[moe](T)p.[moe](G)[sp].d([m5C])[sp].d(T)[sp].d(A)[sp].d(T)[sp].d(T)[sp].d([m5C])[sp].d(A)[sp].d(T)[sp].d(T)[sp].d(T)[sp].[moe](T)p.[moe](T)p.[moe]([m5C])[sp].[moe](A)}$$$$ (last 3' nucleoside missing) | 0 score 0-7 |
| RNA1{[moe]([m5C])[sp].[moe]([m5C])p.[moe](T)p.[moe](T)p.[moe](T)[sp].d(G)[sp].d(T)[sp].d(T)[sp].d(T)[sp].d(G)[sp].d(A)[sp].d(A)[sp].d([m5C])[sp].d([m5C])[sp].d([m5C])[sp].[moe](A)p.[moe]([m5C])p.[moe](A)[sp].[moe](T)}$$$$ (last 3' nucleoside missing) | 0 score 0-7 |
| RNA1{[moe]([m5C])[sp].[moe]([m5C])p.[moe](T)p.[moe](T)p.[moe](T)[sp].d([m5C])[sp].d(A)[sp].d(A)[sp].d(T)[sp].d(A)[sp].d(T)[sp].d(T)[sp].d(G)[sp].d(T)[sp].d(T)[sp].[moe]([m5C])p.[moe](T)p.[moe](T)[sp].[moe]([m5C])}$$$$ (last 3' nucleoside missing) | 3.33 score 0-7 |
| RNA1{[moe]([m5C])[sp].[moe]([m5C])p.[moe](T)p.[moe](T)p.[moe]([m5C])[sp].d(T)[sp].d(T)[sp].d(A)[sp].d([m5C])[sp].d(A)[sp].d(A)[sp].d(T)[sp].d(T)[sp].d(A)[sp].d(T)[sp].[moe](G)p.[moe]([m5C])p.[moe](T)[sp].[moe]([m5C])}$$$$ (last 3' nucleoside missing) | 1 score 0-7 |
| RNA1{[moe]([m5C])[sp].[moe]([m5C])p.[moe](T)p.[moe]([m5C])p.[moe](T)[sp].d(G)[sp].d([m5C])[sp].d(T)[sp].d(A)[sp].d([m5C])[sp].d(T)[sp].d(T)[sp].d([m5C])[sp].d(T)[sp].d(A)[sp].[moe]([m5C])p.[moe](T)p.[moe](A)[sp].[moe]([m5C])}$$$$ (last 3' nucleoside missing) | 1 score 0-7 |
| RNA1{[moe]([m5C])[sp].[moe]([m5C])p.[moe]([m5C])p.[moe](A)p.[moe]([m5C])[sp].d(T)[sp].d(T)[sp].d([m5C])[sp].d([m5C])[sp].d([m5C])[sp].d(A)[sp].d(T)[sp].d(T)[sp].d([m5C])[sp].d(T)[sp].[moe](G)p.[moe](G)p.[moe](A)[sp].[moe]([m5C])}$$$$ (last 3' nucleoside missing) | 0.5 score 0-7 |
